According to patent EP3415164A1, “COMPOSITION COMPRISING A SPECIFIC P38A INHIBITOR AND AN AGENT THAT INDUCES CHROMOSOME INSTABILITY AND MEDICAL USES THEREOF” (Fundació Institut de Recerca Biomèdica (IRB Barcelona), priority 2017, dated 2018):

Assays:
[1] = tested on: PyMT-induced mammary tumours; test: Growth, DNA damage and mitotic figures of PyMT-induced mammary tumours in treated mice; type: in vivo; conditions: for effect on tumour growth: taxane administered alone, 20 mg/kg once a week for three weeks
Method: Mouse experiments. PyMT p38αlox/lox UbCre female mice were generated by crossing p38αlox/lox mice (Ventura et al., 2007) with MMTV-PyMT, provided by William Muller (McGill University, Canada) and UbiquitinC-Cre-ERT2 mice (Ruzankina et al., 2007), being all mostly in FVB background. Mouse genotyping was performed by PCR using genomic tail DNA. Primers and conditions are available upon request. Mice were housed according to national and European Union regulations, and protocols were approved by the animal care and use committee of the Barcelona Science Park (PCB-CEEA). […] For p38α deletion, 4OHT (Sigma, H6278) was dissolved in 10% ethanol/90% corn oil (Sigma, C8267) and mice were injected intraperitoneally with 1 mg each day for five consecutive days. For chemotherapeutic treatments, mice were injected once a week with 20 mg/kg of docetaxel (Accord, 691719.0) or 20 mg/kg paclitaxel (Accord, 676253.0), for three consecutive weeks. […] Histology and immunohistochemistry. Tumours dissected from mice were fixed overnight in 10%-buffered formalin (Sigma, HT501128) and embedded in paraffin. Sections (5 µm-thick) were stained with hematoxylin and eosin (H&E). Specific antibodies were used for the following stainings: Ki67 (Novacastra, NCL), phospho-H3 (Millipore, 06-570), γ-H2AX (Millipore, 05-636). […] Apoptosis was detected by TUNEL using the "In situ Cell Death Detection Kit, Fluorescein" (Roche, 11684795910), following the manufacturer's instructions.

[2] = tested on: breast tumour patient-derived xenografts (PDXs); test: Breast tumour patient-derived xenografts (PDXs) treated with taxanes and PH797804; type: in vivo
[3] = PH797804 in combination with paclitaxel or docetaxel
[4] = combination therapy versus single treatments, around day 15, responding PDXs (TN1, TN2, Lum1, Lum2)

| Compound | tumour size ([1]; PH797804 15 mg/kg daily by oral gavage in combination with paclitaxel or docetaxel) | DNA damage (γ-H2AX staining) [1, 3] | missegregation events (phospho-H3 staining) [1, 3] | aneuploidy (FISH, chromosome 17 centromeric probe) ([2]; PH797804 with paclitaxel versus paclitaxel) | detrimental outcome induced by p38α inhibition ([2]; all nine PDXs) | anti-tumour response ([2]; co-administration with paclitaxel or docetaxel versus taxane alone, most cases (seven of nine PDXs)) | anti-tumour response ([2]; co-administration with taxane, PDX models TN5 and Lum4) | missegregation events [2, 4] | γ-H2AX staining [2, 4] | effect on tumour growth ([2]; p38α inhibition (PH797804) alone, 15 mg/kg daily oral, most PDX models) | effect on tumour growth [1] |
| --- | --- | --- | --- | --- | --- | --- | --- | --- | --- | --- | --- |
| CNC(=O)c1ccc(C)c(-n2c(C)cc(OCc3ccc(F)cc3F)c(Br)c2=O)c1 [PH797804] | substantial reduction of tumour size | increased levels of DNA damage | higher number of missegregation events | usually enhanced the aneuploidy induced by paclitaxel | never observed increased tumour growth or any other detrimental outcome | enhanced, accelerated or prolonged the anti-tumour response observed with the taxane alone | no additional benefit was observed | increased percentage of missegregation events | increased γ-H2AX staining | mild effect on tumour growth |  |
| CC(=O)O[C@@]12CO[C@@H]1C[C@H](O)[C@@]1(C)C(=O)[C@H](O)C3=C(C)[C@@H](OC(=O)[C@H](O)[C@@H](NC(=O)OC(C)(C)C)c4ccccc4)C[C@@](O)([C@@H](OC(=O)c4ccccc4)[C@H]21)C3(C)C [docetaxel] |  |  |  |  |  |  |  |  |  |  | only exerted a cytostatic effect on tumour growth |
| CC(=O)O[C@H]1C(=O)[C@@]2(C)[C@H]([C@H](OC(=O)c3ccccc3)[C@]3(O)C[C@H](OC(=O)[C@H](O)[C@@H](NC(=O)c4ccccc4)c4ccccc4)C(C)=C1C3(C)C)[C@]1(OC(C)=O)CO[C@@H]1C[C@@H]2O [paclitaxel] |  |  |  |  |  |  |  |  |  |  | only exerted a cytostatic effect on tumour growth |
